Experimental data as given in patent US8455665B2, “3-phenoxymethylpyrrolidine compounds” (Theravance, Inc., priority 2009, dated 2013).
Marks after values point to notes of the source that are not given here.

Assays:
[1] = molecular target: NET (Homo sapiens, UniProt P23975); test: fluorescence-based norepinephrine uptake assay (Tsuruda et al. 2010); type: cell-based; conditions: norepinephrine reuptake inhibition, fluorescence-based assay (data indicated by an asterisk); for IC50: read-out: NET pIC50 (converted)
[2] = molecular target: SERT (Homo sapiens, UniProt P31645); test: fluorescence-based serotonin uptake assay (Tsuruda et al. 2010); type: cell-based; conditions: serotonin reuptake inhibition, fluorescence-based assay (data indicated by an asterisk); for IC50: read-out: SERT pIC50 (converted)
SERT, sequence (P31645 whole entry, species assumed): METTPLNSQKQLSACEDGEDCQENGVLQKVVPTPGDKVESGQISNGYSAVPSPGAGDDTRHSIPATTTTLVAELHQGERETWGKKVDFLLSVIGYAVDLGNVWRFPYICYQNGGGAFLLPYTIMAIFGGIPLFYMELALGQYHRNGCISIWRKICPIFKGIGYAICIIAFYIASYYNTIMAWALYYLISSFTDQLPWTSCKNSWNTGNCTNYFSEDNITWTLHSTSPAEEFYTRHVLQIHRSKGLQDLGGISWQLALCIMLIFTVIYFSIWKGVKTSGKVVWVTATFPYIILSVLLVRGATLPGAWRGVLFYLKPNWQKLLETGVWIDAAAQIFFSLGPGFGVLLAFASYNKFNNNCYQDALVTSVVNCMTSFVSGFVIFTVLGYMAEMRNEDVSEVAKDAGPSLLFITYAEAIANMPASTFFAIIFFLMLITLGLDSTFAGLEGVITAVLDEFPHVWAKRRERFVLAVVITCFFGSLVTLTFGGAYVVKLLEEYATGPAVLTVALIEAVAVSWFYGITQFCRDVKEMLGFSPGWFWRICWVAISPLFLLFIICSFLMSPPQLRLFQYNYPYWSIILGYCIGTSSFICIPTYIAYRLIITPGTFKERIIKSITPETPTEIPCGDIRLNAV

NET, sequence (P23975 whole entry): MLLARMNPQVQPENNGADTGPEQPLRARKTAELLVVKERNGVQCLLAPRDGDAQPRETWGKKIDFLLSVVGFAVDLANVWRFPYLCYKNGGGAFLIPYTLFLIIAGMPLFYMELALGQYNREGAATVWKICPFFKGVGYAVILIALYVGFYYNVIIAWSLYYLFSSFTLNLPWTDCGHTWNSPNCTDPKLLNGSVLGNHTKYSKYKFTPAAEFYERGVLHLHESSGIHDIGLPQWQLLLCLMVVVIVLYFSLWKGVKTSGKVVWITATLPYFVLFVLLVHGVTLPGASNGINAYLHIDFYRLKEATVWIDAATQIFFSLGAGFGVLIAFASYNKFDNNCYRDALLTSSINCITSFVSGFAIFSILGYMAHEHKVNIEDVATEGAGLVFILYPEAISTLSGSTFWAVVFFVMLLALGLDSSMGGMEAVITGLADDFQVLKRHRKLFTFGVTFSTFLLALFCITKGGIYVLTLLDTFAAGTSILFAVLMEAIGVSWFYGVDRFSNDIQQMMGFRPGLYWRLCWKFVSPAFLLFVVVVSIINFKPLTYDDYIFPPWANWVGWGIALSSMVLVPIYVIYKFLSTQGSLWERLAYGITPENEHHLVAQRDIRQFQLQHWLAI

Row | SMILES | IC50 [1] | IC50 [2] | NET pIC50 [1] | SERT pIC50 [2]
1 | CCOC[C@H](Oc1ccc(C(F)(F)F)cc1)[C@H]1CCNC1 [Example 7-6, (S)-3-[(R)-2-Ethoxy-1-(4-trifluoromethylphenoxy)ethyl]pyrrolidine] | ≤ 100 nM | ≤ 10 nM |  | 
2 | CCOC[C@@H](Oc1ccc(Cl)cc1Cl)[C@H]1CCNC1 [Example 7-17, (S)-3-[(S)-1-(2,4-Dichlorophenoxy)-2-ethoxyethyl]pyrrolidine] | ≤ 100 nM | ≤ 10 nM |  | 
3 | CCSC[C@@H](Oc1cccc(Cl)c1C(F)(F)F)[C@H]1CCNC1.O=C(O)C(F)(F)F [Example 17-14] |  |  | ≧7.0* | ≧8.0*
4 | CC(C)SC[C@@H](Oc1ccc(Cl)cc1Cl)[C@H]1CCNC1 [Example 19-5, (S)-3-[(S)-1-(2,4-Dichlorophenoxy)-2-isopropylsulfanylethyl]pyrrolidine] | ≤ 100 nM | ≤ 10 nM |  | 
5 | CCOC[C@H](Oc1ccc(F)cc1Cl)[C@H]1CCNC1 [Example 7-18, (S)-3-[(R)-1-(2-Chloro-4-fluorophenoxy)-2-ethoxyethyl]pyrrolidine] | ≤ 10 nM | ≤ 100 nM |  | 
6 | CCSC[C@H](Oc1ccc(Cl)c(Cl)c1)[C@H]1CCNC1.O=C(O)C(F)(F)F [Example 17-9] |  |  | ≧8.0* | ≧8.0*
7 | CCOC[C@H](Oc1ccc(Cl)cc1C(F)(F)F)[C@H]1CCNC1 [Example 7-23, (S)-3-[(R)-1-(4-Chloro-2-trifluoromethylphenoxy)-2-ethoxyethyl]pyrrolidine] | ≤ 10 nM | ≤ 10 nM |  | 
8 | CSC[C@@H](Oc1cccc(F)c1Cl)[C@H]1CCNC1.O=C(O)C(F)(F)F [Example 15-4] |  |  | ≧8.0* | ≧8.0*
9 | CCSC[C@H](Oc1ccc(C(F)(F)F)cc1)[C@H]1CCNC1.O=C(O)C(F)(F)F [Example 17-11] |  |  | ≧8.0* | ≧8.0*
10 | CSC[C@H](Oc1cccc(C(F)(F)F)c1)[C@H]1CCNC1.O=C(O)C(F)(F)F [Example 15-9] |  |  | ≧7.0* | ≧7.0*
11 | CCOC[C@H](Oc1c(Cl)ccc(Cl)c1F)[C@H]1CCNC1 [Example 7-32, (S)-3-[(R)-1-(3,6-Dichloro-2-fluorophenoxy)-2-ethoxyethyl]pyrrolidine] | ≤ 10 nM | ≤ 100 nM |  | 
12 | CCOC[C@@H](Oc1cccc(C(F)(F)F)c1)[C@H]1CCNC1 [Example 7-3, (S)-3-[(S)-2-Ethoxy-1-(3-trifluoromethylphenoxy)ethyl]pyrrolidine] | ≤ 100 nM | ≤ 100 nM |  | 
13 | CCSC[C@@H](Oc1cccc(Cl)c1C)[C@H]1CCNC1.O=C(O)C(F)(F)F [Example 17-6] |  |  | ≧8.0* | ≧8.0*
14 | CCOC[C@H](Oc1cc(Cl)cc(Cl)c1)[C@H]1CCNC1 [Example 7-27, (S)-3-[(R)-1-(3,5-Dichlorophenoxy)-2-ethoxyethyl]pyrrolidine] | ≤ 10 nM | ≤ 100 nM |  | 
15 | CCSC[C@H](Oc1ccc(Cl)cc1)[C@H]1CCNC1.O=C(O)C(F)(F)F [Example 17-10] |  |  | ≧8.0* | ≧8.0*
16 | CCOC[C@H](Oc1c(Cl)cc(F)cc1Cl)[C@H]1CCNC1 [Example 7-31, (S)-3-[(R)-1-(2,6-Dichloro-4-fluorophenoxy)-2-ethoxyethyl]pyrrolidine] | ≤ 10 nM | ≤ 100 nM |  | 
17 | CCSC[C@@H](Oc1ccc(Cl)cc1Cl)[C@H]1CCNC1.O=C(O)C(F)(F)F [Example 17-8] |  |  | ≧8.0* | ≧8.0*
18 | CCSC[C@H](Oc1ccc(Cl)cc1Cl)[C@H]1CCNC1.O=C(O)C(F)(F)F [Example 17-7] |  |  | ≧8.0* | ≧8.0*
19 | CSC[C@H](Oc1cccc(F)c1Cl)[C@H]1CCNC1.O=C(O)C(F)(F)F [Example 15-3] |  |  | ≧8.0* | ≧8.0*
20 | Cc1cc(Cl)ccc1O[C@H](CO)[C@@H]1CCNC1 (stereo in doubt) [Example 1, (R)-2-(4-Chloro-2-methylphenoxy)-2-(S)-pyrrolidin-3-yl-ethanol] | ≤ 10 nM | ≤ 10 nM |  | 
21 | CC(C)OC[C@@H](Oc1cccc(F)c1Cl)[C@H]1CCNC1 [Example 9-11, (S)-3-[(S)-1-(2-Chloro-3-fluorophenoxy)-2-isopropoxyethyl]pyrrolidine] | ≤ 10 nM | ≤ 10 nM |  | 
22 | CCSC[C@H](Oc1cccc(Cl)c1C)[C@H]1CCNC1.O=C(O)C(F)(F)F [Example 17-5] |  |  | ≧8.0* | ≧8.0*
23 | CCOC[C@H](Oc1cccc(F)c1F)[C@H]1CCNC1 [Example 7-11, (S)-3-[(R)-1-(2,3-Difluorophenoxy)-2-ethoxyethyl]pyrrolidine] | ≤ 10 nM | ≤ 100 nM |  | 
24 | CSC[C@@H](Oc1cccc(C(F)(F)F)c1)[C@H]1CCNC1.O=C(O)C(F)(F)F [Example 15-10] |  |  | ≧7.0* | ≧7.0*

Row | SMILES | IC50 [1] | IC50 [2] | NET pIC50 [1] | SERT pIC50 [2]
25 | CCOC[C@H](Oc1cc(F)cc(Cl)c1)[C@H]1CCNC1 [Example 7-28, (S)-3-[(R)-1-(3-Chloro-5-fluorophenoxy)-2-ethoxyethyl]pyrrolidine] | ≤ 10 nM | ≤ 100 nM |  | 
26 | CSC[C@H](Oc1cccc(Cl)c1C(F)(F)F)[C@H]1CCNC1.O=C(O)C(F)(F)F [Example 15-7] |  |  | ≧8.0* | ≧8.0*
27 | CSC[C@H](Oc1cccc(Cl)c1Cl)[C@H]1CCNC1.O=C(O)C(F)(F)F [Example 15-1] |  |  | ≧8.0* | ≧8.0*
28 | CCOC[C@H](Oc1ccc(Cl)cc1Cl)[C@H]1CCNC1 [Example 6, (S)-3-[(R)-1-(2,4-Dichlorophenoxy)-2-ethoxyethyl]pyrrolidine] | ≤ 10 nM | ≤ 10 nM |  | 
29 | CCOC[C@H](Oc1cccc(Cl)c1Cl)[C@H]1CCNC1 [Example 7-7, (S)-3-[(R)-1-(2,3-Dichlorophenoxy)-2-ethoxyethyl]pyrrolidine] | ≤ 10 nM | ≤ 10 nM |  | 
30 | CSC[C@@H](Oc1ccc(F)c(F)c1F)[C@H]1CCNC1.O=C(O)C(F)(F)F [Example 15-14] |  |  | ≧8.0* | ≧7.0*
31 | CSC[C@@H](Oc1cccc(Cl)c1C(F)(F)F)[C@H]1CCNC1.O=C(O)C(F)(F)F [Example 15-8] |  |  | ≧7.0* | ≧8.0*
32 | CCOC[C@H](Oc1cccc(F)c1Cl)[C@H]1CCNC1 [Example 7-9, (S)-3-[(R)-1-(2-Chloro-3-fluorophenoxy)-2-ethoxyethyl]pyrrolidine] | ≤ 10 nM | ≤ 100 nM |  | 
33 | CCOC[C@H](Oc1ccc(Cl)cc1F)[C@H]1CCNC1 [Example 7-21, (S)-3-[(R)-1-(4-Chloro-2-fluorophenoxy)-2-ethoxyethyl]pyrrolidine] | ≤ 10 nM | ≤ 10 nM |  | 
34 | CC(C)OC[C@@H](Oc1cccc(Cl)c1Cl)[C@H]1CCNC1 [Example 9-8, (S)-3-[(S)-1-(2,3-Dichlorophenoxy)-2-isopropoxyethyl]pyrrolidine] | ≤ 10 nM | ≤ 10 nM |  | 
35 | CC(C)OC[C@@H](Oc1cccc(C(F)(F)F)c1)[C@H]1CCNC1 [Example 9-3, (S)-3-[(S)-2-Isopropoxy-1-(3-trifluoromethylphenoxy)ethyl]pyrrolidine] | ≤ 100 nM | ≤ 10 nM |  | 
36 | CCOC[C@H](Oc1ccccc1Cl)[C@H]1CCNC1 [Example 7-1, (S)-3-[(R)-1-(2-Chlorophenoxy)-2-ethoxyethyl]pyrrolidine] | ≤ 10 nM | ≤ 100 nM |  | 
37 | CSC[C@@H](Oc1cccc(Cl)c1C)[C@H]1CCNC1.O=C(O)C(F)(F)F [Example 15-6] |  |  | ≧8.0* | ≧8.0*
38 | CC(C)OC[C@@H](Oc1c(Cl)cccc1Cl)[C@H]1CCNC1 [Example 9-28, (S)-3-[(S)-1-(2,6-Dichlorophenoxy)-2-isopropoxyethyl]pyrrolidine] | ≤ 10 nM | ≤ 100 nM |  | 
39 | CCOC[C@@H](Oc1cccc(Cl)c1C)[C@H]1CCNC1 [Example 7-14, (S)-3-[(S)-1-(3-Chloro-2-methylphenoxy)-2-ethoxyethyl]pyrrolidine] | ≤ 10 nM | ≤ 10 nM |  | 
40 | CCOC[C@H](Oc1ccc(Cl)cc1)[C@H]1CCNC1 [Example 7-4, (S)-3-[(R)-1-(4-Chlorophenoxy)-2-ethoxyethyl]pyrrolidine] | ≤ 10 nM | ≤ 10 nM |  | 
41 | Clc1cccc(Cl)c1OC(COCc1ccccc1)C1CCNC1 [Example 10-4, ((S)-3-[(R)-2-Benzyloxy-1-(2,6-dichlorophenoxy)ethyl]pyrrolidine] | ≤ 10 nM | ≤ 100 nM |  | 
42 | CCSC[C@H](Oc1cccc(Cl)c1C(F)(F)F)[C@H]1CCNC1 [Example 16, (S)-3-[(R)-1-(3-Chloro-2-trifluoromethylphenoxy)-2-ethylsulfanylethyl]-pyrrolidine] | ≤ 10 nM | ≤ 10 nM |  | 
43 | CSC[C@@H](Oc1ccc(Cl)cc1Cl)[C@H]1CCNC1.O=C(O)C(F)(F)F [Example 15-12] |  |  | ≧7.0* | ≧8.0*
44 | Cc1c(Cl)cccc1O[C@H](COC(C)C)[C@H]1CCNC1 [Example 9-15, (S)-3-[(S)-1-(3-Chloro-2-methylphenoxy)-2-isopropoxyethyl]pyrrolidine] | ≤ 10 nM | ≤ 10 nM |  | 
45 | OC[C@@H](Oc1cccc(Cl)c1Cl)[C@@H]1CCNC1 (stereo in doubt) [Example 2-2, (R)-2-(2,3-Dichlorophenoxy)-2-(S)-pyrrolidin-3-yl-ethanol] | ≤ 10 nM | ≤ 100 nM |  | 
46 | Clc1ccc(OC(COCc2ccccc2)C2CCNC2)c(Cl)c1 [Example 10-3, ((S)-3-[(R)-2-Benzyloxy-1-(2,4-dichlorophenoxy)ethyl]pyrrolidine] | ≤ 100 nM | ≤ 10 nM |  | 
47 | CCOC[C@H](Oc1cccc(C(F)(F)F)c1F)[C@H]1CCNC1 [Example 7-12, (S)-3-[(R)-2-Ethoxy-1-(2-fluoro-3-trifluoromethylphenoxy)ethyl]pyrrolidine] | ≤ 100 nM | ≤ 100 nM |  | 
48 | CSC[C@@H](Oc1cccc(Cl)c1Cl)[C@H]1CCNC1.O=C(O)C(F)(F)F [Example 15-2] |  |  | ≧8.0* | ≧8.0*
